According to patent publication US7138361B2, “Herbicidal heterocycles” (E. I. du Pont de Nemours and Company, priority 2000, dated 2006):

How the values were obtained:
Format in all cases: in vivo
[1] = test system: Surinam grass (Brachiaria decumbens); test: Test C postemergence
Method in brief: (§1)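 Preemergence: seeds sown then treated. Postemergence: plants 2–18 cm, 1- to 4-leaf. Both with surfactant-containing solvent formulation; visual injury scored 0–100 after 12–14 d.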

[2] = test system: bermudagrass (Cynodon dactylon); test: Test C postemergence
Method in brief: as §1

[3] = test system: cocklebur (Xanthium strumarium); test: Test C postemergence
Method in brief: as §1

[4] = test system: common ragweed (Ambrosia elatior); test: Test C postemergence; conditions: Rate 500 g/ha, scale 0 to 100 (0 no effect, 100 complete control)
Method in brief: as §1

[5] = test system: corn (Zea mays); test: Test C postemergence
Method in brief: as §1

[6] = test system: crabgrass (Digitaria sanguinalis); test: Test C postemergence
Method in brief: as §1

[7] = test system: giant foxtail (Setaria faberii); test: Test C postemergence
Method in brief: as §1

[8] = test system: goosegrass (Eleusine indica); test: Test C postemergence
Method in brief: as §1

[9] = test system: johnsongrass (Sorghum halepense); test: Test C postemergence
Method in brief: as §1

[10] = test system: kochia (Kochia scoparia); test: Test C postemergence
Method in brief: as §1

[11] = test system: lambsquarters (Chenopodium album); test: Test C postemergence
Method in brief: as §1

[12] = test system: morningglory (Ipomoea hederacea); test: Test C postemergence
Method in brief: as §1

[13] = test system: pigweed (Amaranthus retroflexus); test: Test C postemergence
Method in brief: as §1

[14] = test system: soybean (Glycine max); test: Test C postemergence
Method in brief: as §1

[15] = test system: velvetleaf (Abutilon theophrasti); test: Test C postemergence
Method in brief: as §1

[16] = test system: woolly cupgrass (Eriochloa villosa); test: Test C postemergence
Method in brief: as §1

[17] = test system: yellow nutsedge (Cyperus esculentus); test: Test C postemergence
Method in brief: as §1

[18] = test system: Sunflower; test: Test C preemergence; conditions: Rate 125 g/ha; scale 0 to 100, 0 no effect, 100 complete control
[19] = test system: bermudagrass (Cynodon dactylon); test: Test C preemergence
Method in brief: as §1

[20] = test system: giant foxtail (Setaria faberii); test: Test C preemergence
Method in brief: as §1

[21] = test system: pigweed (Amaranthus retroflexus); test: Test C preemergence
Method in brief: as §1

[22] = test system: yellow nutsedge (Cyperus esculentus); test: Test C preemergence
Method in brief: as §1

[23] = Rate 125 g/ha, scale 0 to 100, 0 no effect, 100 complete control
[24] = Rate 250 g/ha, scale 0 to 100 (0 no effect, 100 complete control)
[25] = Rate 500 g/ha, scale 0 to 100 (0 no effect, 100 complete control)
[26] = preemergence, Rate 62 g/ha, scale 0 to 100
[27] = preemergence, Rate 500 g/ha, visual evaluation after 12 to 14 days
[28] = preemergence, Rate 250 g/ha, scale 0 to 100, 0 no effect, 100 complete control

COc1cc(N2CCC(n3ccc(C(C)(C)C)n3)C2=O)ccc1Cl (centres unmarked) [Compound 117]
90: Plant response rating, Ragweed, Common [4] | Plant response rating, Kochia [10, 25] | Plant response rating, Pigweed [13, 24] | Plant response rating, Soybean [14, 25]
30: Plant response rating, Foxtail, Giant [7, 24] | Plant response rating (0 to 100), Pigweed [21, 27]
75: Plant response rating, Lambsquarters ([11]; Rate 62 g/ha, scale 0 to 100)
50: Plant response rating, Bermudagrass [2, 23] | Plant response rating, Bermudagrass [2, 24] | Plant response rating, Soybean ([14]; Rate 62 g/ha, scale 0 to 100)
35: Plant response rating, Velvetleaf [15, 24] | Plant response rating, Velvetleaf ([15]; scale 0 to 100)
10: Plant response rating, Corn [5, 25] | Plant response rating, Crabgrass [6, 24] | Plant response rating, Crabgrass [6, 25] | Plant response rating, Goosegrass ([8]; Rate 62 g/ha, scale 0 to 100)
45: Plant response rating, Cupgrass, Woolly [16, 25]
60: Plant response rating, Foxtail, Giant [7, 25] | Plant response rating, Pigweed ([13]; Rate 62 g/ha, scale 0 to 100) | Plant response rating, Velvetleaf [15, 25]
20: Plant response rating, Velvetleaf ([15]; Rate 62 g/ha, scale 0 to 100)
15: Plant response rating, Surinam grass [1, 25]
100: Plant response rating, Cocklebur [3, 25] | Plant response rating, Goosegrass [8, 25] | Plant response rating, Lambsquarters [11, 25] | Plant response rating, Morningglory ([12]; Rate 62 g/ha, scale 0 to 100) | Plant response rating, Morningglory [12, 24] | Plant response rating, Morningglory [12, 25] | Plant response rating, Pigweed [13, 25] | Plant response rating, Bermudagrass [19, 23] | Plant response rating, Bermudagrass [19, 26] | Plant response rating (0 to 100 where 0 is no effect and 100 is complete control), Bermudagrass [19, 27] | Plant response rating, Bermudagrass [19, 28] | Plant response rating, Foxtail, Giant [20, 26] | Plant response rating (0 to 100), Foxtail, Giant [20, 27] | Plant response rating, Foxtail, Giant [20, 28] | Plant response rating, Pigweed [21, 23] | Plant response rating, Pigweed [21, 26] | Plant response rating, Pigweed [21, 28]
70: Plant response rating, Goosegrass [8, 24]
85: Plant response rating, Cocklebur [3, 24] | Plant response rating, Kochia [10, 24] | Plant response rating, Soybean [14, 24]
95: Plant response rating, Bermudagrass [2, 25] | Plant response rating, Lambsquarters [11, 24]
0: Plant response rating, Surinam grass ([1]; Rate 62 g/ha, scale 0 to 100) | Plant response rating, Surinam grass [1, 23] | Plant response rating, Surinam grass [1, 24] | Plant response rating, Bermudagrass ([2]; Rate 62 g/ha, scale 0 to 100) | Plant response rating, Cocklebur ([3]; Rate 62 g/ha, scale 0 to 100) | Plant response rating, Corn ([5]; Rate 62 g/ha, scale 0 to 100) | Plant response rating, Corn [5, 24] | Plant response rating, Corn ([5]; scale 0 to 100) | Plant response rating, Crabgrass ([6]; Rate 62 g/ha, scale 0 to 100) | Plant response rating, Foxtail, Giant ([7]; Rate 62 g/ha, scale 0 to 100) | Plant response rating, Johnsongrass ([9]; Rate 62 g/ha, scale 0 to 100) | Plant response rating, Johnsongrass [9, 24] | Plant response rating, Johnsongrass [9, 25] | Plant response rating, Johnsongrass ([9]; rate not given, scale 0 to 100) | Plant response rating, Cupgrass, Woolly ([16]; Rate 62 g/ha, scale 0 to 100) | Plant response rating, Nutsedge ([17]; Rate 62 g/ha, scale 0 to 100) | Plant response rating, Nutsedge [17, 24] | Plant response rating, Nutsedge [17, 25] | Plant response rating, Foxtail, Giant [20, 23] | Plant response rating, Nutsedge [22, 23] | Plant response rating, Nutsedge [22, 26] | Plant response rating (0 to 100), Nutsedge [22, 27] | Plant response rating, Nutsedge [22, 28]
80: Plant response rating, Kochia ([10]; Rate 62 g/ha, scale 0 to 100)
40: Plant response rating, Cupgrass, Woolly [16, 24] | Plant response rating, Sunflower [18]
